Measurements as given in patent US20250136568A1, “FUSED HETEROCYCLIC COMPOUNDS AS PI3KALPHA INHIBITORS” (Nanjing Zenshine Pharmaceuticals Co., Ltd., priority 2021, published 2025).
Like-named read-outs stand apart in the source and are kept apart here.

What was measured:
[1] = tested on: PI3Kα H1047R mutation cell line T-47D; assay: Cell Proliferation IC50 Assay (CellTiter-Glo), T-47D; format: cell-based; conditions: T47D (H1047R), 72 hours, CellTiter-Glo, read-out: IC50 (μM) T47D
From the text: (§1) PI3Kα H1047R mutation cell line T-47D and MDA-MB-453, E545K mutation cell line MDA-MB-361 and PI3Kα wide type cell line SK-BR-3 were purchased from Cobioer Biotech (cat. no CBP60397, CBP60386, CBP60383 and CBP60413 respectively). The CellTiter-Glo Direct Cell Proliferation Assay Kit was purchased from Prornega (cat. No. G7573)
(§2) For cell proliferation assay in each cell line: • a. Prepare complete medium (R PMI 1640, DMEM or McCoys): Add FBS and appropriate additives according to the information sheet provided by the vendor. Mix gently. • b. Prepare single cell suspension and count the cell numbers and adjust cells to appropriate density. • c. Add 80 μL of cell suspension to 96-well opaque-walled clear bottom plates according to the planned plate layout and place the plates in the CO2 incubator overnight. • d. Prepare intermediate plate: 10 μl of diluted test compounds or staurosporine solution (200×) is added to a 96 deep well plate. Then 390 μl of culture medium without FBS is added to the respective wells. • e. Transfer 20 μL of the solutions from the above intermediate plate to the wells of the plate prepared containing 80 μL of the culture medium and cells. The total dilution is 200 folds. • f. The cells were then incubated at 5% CO2, 37° C. for 72 hours. • g. Equilibrate the plate and its contents to room temperature for approximately 30 minutes. • h. Add 100 μL of CellTiter-Glo reagent to the assay plate • i. Mix contents for 10 minutes on an orbital shaker to induce cell lysis. • j. Allow the plate to incubate at room temperature for 10 minutes to stabilize luminescent signal, • k. Paste the clear bottom with white back seal and record luminescence with Varioskan LUX plate reader.
(§3) Inhibition % and IC50 value were calculated by the formula described below: […]

[2] = tested on: PI3Kα wide type cell line SK-BR-3; assay: Cell Proliferation IC50 Assay (CellTiter-Glo), SK-BR-3; format: cell-based; conditions: SK-BR-3 (PI3Kα wild type), 72 hours, CellTiter-Glo, read-out: IC50 (μM) SK-BR-3
From the text: as §1, §2, §3

Row | Compound | IC50 ([1]; Homo sapiens, T47D, 72 h) | IC50 ([2]; Homo sapiens) | IC50 [1] | IC50 [2] | IC50 ([1]; Homo sapiens)
1 | Cc1cc([C@H](C)Nc2ccccc2C(=O)O)c2oc(-c3ccc4nn(C)cc4c3)c(C)c(=O)c2c1 (single isomer, unassigned) [Example 49B] | 7.24 µM | > 10 µM | – | – | –
2 | Cc1cc([C@H](C)Nc2ccccc2C(=O)O)c2oc(-c3ccc(-c4cnn(C)c4)cc3)cc(=O)c2c1 (single isomer, unassigned) [Example 95B] | 0.99 µM | > 10 µM | – | – | –
3 | COC(=O)N1CCN(c2ccc(-c3oc4c([C@@H](C)Nc5ccccc5C(=O)O)cc(C)cc4c(=O)c3C)cn2)CC1 (single isomer, unassigned) [Example 155A] | 0.12 µM | > 10 µM | – | – | –
4 | COC(=O)N1CCN(c2ccc(-c3oc4c([C@H](C)Nc5ccccc5C(=O)O)cc(C)cc4c(=O)c3C)cn2)CC1 (single isomer, unassigned) [Example 155B] | 5.06 µM | > 10 µM | – | – | –
5 | Cc1cc([C@@H](C)Nc2ccccc2C(=O)O)c2oc(-c3ccc(OCC4CCCN4C)cc3)c(C)c(=O)c2c1 (single isomer, unassigned) [Example 172A] | 0.065 µM | > 10 µM | – | – | –
6 | Cc1cc([C@@H](C)Nc2ccccc2C(=O)O)c2oc(-c3ccc(OCC4CCCN4C)cc3)c(C)c(=O)c2c1 (single isomer, unassigned) [Example 172B] | – | – | 0.063 µM | > 10 µM | –
7 | Cc1cc(C(C)Nc2ccccc2C(=O)O)c2oc(-c3ccc4c(c3)CNC4=O)cc(=O)c2c1 (stereo not shown) [Example 5, 2-((1-(6-methyl-4-oxo-2-(1-oxoisoindolin-5-yl)-4H-chromen-8-yl)ethyl)amino)benzoic acid] | 1.54 µM | > 10 µM | – | – | –
8 | Cc1cc(C(C)Nc2ccccc2C(=O)O)c2oc(C3CCN(C(C)C(F)(F)F)CC3)cc(=O)c2c1 (stereo not shown) [Example 16, 2-((1-(6-methyl-4-oxo-2-(1-(1,1,1-trifluoropropan-2-yl)piperidin-4-yl)-4H-chromen-8-yl)ethyl)amino)benzoic acid] | 2.56 µM | > 10 µM | – | – | –
9 | Cc1cc(C(C)Nc2ccccc2C(=O)O)c2oc(C3=CCN(C(C)C(F)(F)F)CC3)cc(=O)c2c1 (stereo not shown) [Example 17, 2-((1-(6-methyl-4-oxo-2-(1-(1,1,1-trifluoropropan-2-yl)-1,2,3,6-tetrahydropyridin-4-yl)-4H-chromen-8-yl)ethyl)amino)benzoic acid] | 2.07 µM | > 10 µM | – | – | –
10 | Cc1cc(C(C)Nc2ccccc2C(=O)O)c2oc(-c3ccccn3)cc(=O)c2c1 (stereo not shown) [Example 31, 2-((1-(6-methyl-4-oxo-2-(pyridin-2-yl)-4H-chromen-8-yl)ethyl)amino)benzoic acid] | 0.9 µM | > 10 µM | – | – | –
11 | Cc1cc(C(C)Nc2ccccc2C(=O)O)c2oc(-c3ccc4cnccc4c3)cc(=O)c2c1 (stereo not shown) [Example 36, 2-((1-(2-(isoquinolin-6-yl)-6-methyl-4-oxo-4H-chromen-8-yl)ethyl)amino)benzoic acid] | 0.2 µM | > 10 µM | – | – | –
12 | Cc1cc(C(C)Nc2ccccc2C(=O)O)c2oc(-c3cnn(C4COC4)c3)cc(=O)c2c1 (stereo not shown) [Example 40, 2-((1-(6-methyl-2-(1-(oxetan-3-yl)-1H-pyrazol-4-yl)-4-oxo-4H-chromen-8-yl)ethyl)amino)benzoic acid] | 2.51 µM | > 10 µM | – | – | –
13 | Cc1cc(C(C)Nc2ccccc2C(=O)O)c2oc(-c3ccc(N4CCNCC4)cc3)cc(=O)c2c1 (stereo not shown) [Example 41, 2-((1-(6-methyl-4-oxo-2-(4-(piperazin-1-yl)phenyl)-4H-chromen-8-yl)ethyl)amino)benzoic acid] | 1.43 µM | > 10 µM | – | – | –
14 | Cc1cc(C(C)Nc2ccccc2C(=O)O)c2oc(-c3ccc(N4CCC(F)(F)CC4)cc3)cc(=O)c2c1 (stereo not shown) [Example 43, 2-((1-(2-(4-(4,4-difluoropiperidin-1-yl)phenyl)-6-methyl-4-oxo-4H-chromen-8-yl)ethyl)amino)benzoic acid] | 0.28 µM | > 10 µM | – | – | –
15 | Cc1cc(C(C)Nc2ccccc2C(=O)O)c2oc(-c3cc4n(c3)CCN(C)C4=O)c(C)c(=O)c2c1 (stereo not shown) [Example 72, 2-((1-(3,6-dimethyl-2-(2-methyl-1-oxo-1,2,3,4-tetrahydropyrrolo[1,2-a]pyrazin-7-yl)-4-oxo-4H-chromen-8-yl)ethyl)amino)benzoic acid] | 5.08 µM | > 10 µM | – | – | –
16 | Cc1cc(C(C)Nc2ccccc2C(=O)O)c2oc(-c3cc4n(n3)CCN(C)C4=O)c(C)c(=O)c2c1 (stereo not shown) [Example 73, 2-((1-(3,6-dimethyl-2-(5-methyl-4-oxo-4,5,6,7-tetrahydropyrazolo[1,5-a]pyrazin-2-yl)-4-oxo-4H-chromen-8-yl)ethyl)amino)benzoic acid] | 2.01 µM | > 10 µM | – | – | –
17 | Cc1cc(C(C)Nc2ccccc2C(=O)O)c2oc(-c3ccc(N4CCOCC4)nc3)c(C)c(=O)c2c1 (stereo not shown) [Example 81, 2-((1-(3,6-dimethyl-2-(6-morpholinopyridin-3-yl)-4-oxo-4H-chromen-8-yl)ethyl)amino)benzoic acid] | 0.15 µM | > 10 µM | – | – | –
18 | Cc1cc(C(C)Nc2ccccc2C(=O)O)c2oc(-c3cnc4nn(C)cc4c3)cc(=O)c2c1 (stereo not shown) [Example 82, 2-((1-(6-methyl-2-(2-methyl-2H-pyrazolo[3,4-b]pyridin-5-yl)-4-oxo-41H-chromen-8-yl)ethyl)amino)benzoic acid] | > 10 µM | > 10 µM | – | – | –
19 | Cc1cc(C(C)Nc2ccccc2C(=O)O)c2oc(-c3cc4cn(C)nc4cn3)cc(=O)c2c1 (stereo not shown) [Example 83, 2-((1-(6-methyl-2-(2-methyl-2H-pyrazolo[3,4-c]pyridin-5-yl)-4-oxo-41H-chromen-8-yl)ethyl)amino)benzoic acid] | – | > 10 µM | – | – | 0.38 µM
20 | Cc1cc(C(C)Nc2ccccc2C(=O)O)c2oc(-c3cc(F)c4nn(C)cc4c3)cc(=O)c2c1 (stereo not shown) [Example 85, 2-((1-(2-(7-fluoro-2-methy-2H-indazol-5-yl)-6-methyl-4-oxo-4H-chromen-8-yl)ethyl)amino)benzoic acid] | 0.13 µM | > 10 µM | – | – | –
21 | CCn1cc2cc(-c3cc(=O)c4cc(C)cc(C(C)Nc5ccccc5C(=O)O)c4o3)ccc2n1 (stereo not shown) [Example 93, 2-((1-(2-(2-ethyl-2H-indazol-5-yl)-6-methyl-4-oxo-41H-chromen-8-yl)ethyl)amino)benzoic acid] | 0.31 µM | > 10 µM | – | – | –
22 | Cc1cc(C(C)Nc2ccccc2C(=O)O)c2oc(-c3ccc4c(c3)CN(C)C4)cc(=O)c2c1 (stereo not shown) [Example 94, 2-((1-(6-methyl-2-(2-methylisoindolin-5-yl)-4-oxo-4-chromen-8-yl)ethyl)amino)benzoic acid] | 1.02 µM | > 10 µM | – | – | –
23 | CC(Nc1ccccc1C(=O)O)c1cc(F)cc2c(=O)cc(-c3ccc4nn(C)cc4c3)oc12 (stereo not shown) [Example 101, 2-((1-(6-fluoro-2-(2-methyl-2H-indazol-5-yl)-4-oxo-4H-chromen-8-yl)ethyl)amino)benzoic acid] | 0.29 µM | > 10 µM | – | – | –
24 | Cc1cc(C(C)Nc2ccccc2C(=O)O)c2nc(-c3ccc4nn(C)cc4c3)cc(=O)n2c1 (stereo not shown) [Example 108, 2-((1-(7-methyl-2-(2-methyl-2H-indazol-5-yl)-4-oxo-4H-pyrido[1,2-a]pyrimidin-9-yl)ethyl)amino)benzoic acid] | 0.84 µM | > 10 µM | – | – | –
25 | Cc1cc(C(C)Nc2cnccc2C(=O)O)c2oc(-c3ccc4nn(C)cc4c3)cc(=O)c2c1 (stereo not shown) [Example 112, 3-((1-(6-methyl-2-(2-methyl-2H-indazol-5-yl)-4-oxo-4H-chromen-8-yl)ethyl)amino)isonicotinic acid] | > 10 µM | > 10 µM | – | – | –
26 | Cc1cc(C(C)Nc2ncccc2C(=O)O)c2oc(-c3ccc4nn(C)cc4c3)cc(=O)c2c1 (stereo not shown) [Example 113, 2-((1-(6-methyl-2-(2-methyl-2H-indazol-5-yl)-4-oxo-4H-chromen-8-yl)ethyl)amino)nicotinic acid] | 0.67 µM | > 10 µM | – | – | –
27 | Cc1cc(C(C)Nc2cccnc2C(=O)O)c2oc(-c3ccc4nn(C)cc4c3)cc(=O)c2c1 (stereo not shown) [Example 114, 3-((1-(6-methyl-2-(2-methyl-21-indazol-5-yl)-4-oxo-4H-chromen-8-yl)ethyl)amino)picolinic acid] | 0.46 µM | > 10 µM | – | – | –
28 | CC(=O)N1CCN(c2ccc(-c3oc4c([C@@H](C)Nc5ccccc5C(=O)O)cc(C)cc4c(=O)c3C)nc2)CC1 [Example 115, (R)-2-((1-(2-(5-(4-acetylpiperazin-1-yl)pyridin-2-yl)-3,6-dimethyl-4-oxo-4H-chromen-8-yl)ethyl)amino)benzoic acid] | – | 3.43 µM | – | – | 0.074 µM
29 | Cc1cc(C(C)Nc2ccccc2C(=O)O)c2oc(-c3cc4cnccc4[nH]3)cc(=O)c2c1 (stereo not shown) [Example 116] | 0.97 µM | > 10 µM | – | – | –
